The nature of data set [1]: absorption wavelength (λmax) and extinction (ε). Format: physicochemical. The following applies: for ε (first value): at first λmax, in M-1cm-1 (unit assumed); for absorption wavelength: comparison; for λmax: synthesis example.
Another data set can be described thus: solubility. It is filed as physicochemical.
A further data set can be described thus: depth of cure. The settings on record: for depth of cure results: other fluorone dyes. The text has this: One of the advantages of the fluorone dye photoinitiators in this invention is the depth of the cure that is obtainable. This is in contrast to UV photoinitators that causes a "screening" effect which prevents the UV light from penetrating beyond a certain […] depth, usually several millimeters. By contrast, the fluorone dye bleaches as it photoinitiates and is concommitantly converted into a non-visible absorbing species thus allowing more visible light to penetrate which continues the cure. This cascading bleaching effect permits substantial depth of cure which can easily reach several inches.
An acrylate monomer mixture was composed of 15 parts urethane diacrylate, 20 parts TPGPA, 40 parts TMPTA and 15 parts DPHPA, and a 20 to 1 weight ratio of NPG coinitiator to DIEF or DIBF fluorone dye. For dye concentrations of 0.01, 0.05 and 0.1 weight, all the formulations cured to a depth of 3 cm in 30 seconds when exposed to a 350 watt tungsten halogen light which provides about 500 mw/cm^2 irradiance. When the irradiance was increased to about 2 watts/cm^2 cure speed was shortened to 5 seconds for the same depth.
An acrylate mixture was composed of 60% urethane diacrylate, 30% DPHPA, 10% BDDA, and 0.05 weight % of DIEF or DIBF fluorone dye with 2 weight % of DIDMA. The formulation cure to a depth greater than 1 cm in 10 seconds when exposed to a 75 watt tungsten halogen lamp which provided an irradiance of about 260 mw/cm^2.
An acrylate mixture was composed of 33% TMPTA, 33% DPHPA, 33% Epoxy acrylate, and 2% of DIDMA with either 0.01, 0.05 or 0.1 weight % of DIEF. All samples cured to a depth greater than 1 cm in 10 seconds when exposed to a 75 watt tungsten halogen.
An acrylate mixture was composed of 70% urethane diacrylate, 5% DPHPA, 25% BDDA, and 2% DIDMA with either 0.01, 0.03 or 0.1 weight % DIEF. The 0.01 and 0.03 samples cured after 2 passes through a 300 watt per inch medium pressure mercury arc lamp at a speed of 50 feet/minute to a depth greater than 3 mm. The 0.1 sample cured to a depth of greater than 1.5 mm.

A short description of data set [2]: double bond conversion (C=C% Conversion) by FTIR. The settings on record: (1:2:3), DIDMA, 30 sec. As to the method:
(§1) To a resin formulation consisting of 15 parts urethane diacrylate, 15 parts DPHPA, 20 parts TPGDA and 40 parts TMPTA was added DIDMA, initiator and (4-octyloxyphenyl)phenyliodonium hexafluoroantimonate (OPPI). The samples were coated to a thickness of 15 microns and exposed to a 75 W tungsten halogen dental lamp (focused through an optical fiber) at a distance of 0.75 inch at which the Light intensity was about 0.40 W/cm^2. The molar ratios are indicative of the amounts of fluorone to onium salt to amine coinitiator. The double bond conversion was determined by FTIR spectroscopy. The pencil hardness of a given test sample is measured by holding a pencil at a 45° angle to the sample and drawing across it towards the person testing it. Using the pencils in an order from softest to hardest, the first pencil that scratches the surface is assigned as the pencil hardness of the sample. The pencil hardness scale is as follows from softest to hardest: 4B, 3B, 2B, B, HB, H, 2H, 3H, 4H, 6H. For instance, if a 2H pencil is the first pencil to scratch the surface then the pencil hardness is 2H.

A further data set can be described thus: pencil hardness. As to the method:
as §1
At the extreme ends of the scale, it is impossible to determine the actual pencil hardness. […] Likewise, if the 4B pencil scratches the sample, the only assignment that can be made is <4B, unless it is a lot softer than 4B in which case a <<4B can be assigned. A pencil hardness of 4H is generally considered satisfactory. Pencil hardness data was greater than 6H after 30 seocnd exposure for all samples except for the control samples without amine (1:2:0). The controls were all less than 4B an 0.05 wt %, 0.10 wt %, and 0.15 wt %.
Photosensitive compositions were prepared from the resin formulation of Example 35 containing 1% NPG and 0.05% DIBF or 0.05% DIEF. The samples were exposed under the conditions shown in the following table and pencil hardness was measured.
Diphenyliodonium hexafluoroantimonate was added to DIBF samples.
Samples were also prepared using 1% DIDMA in addition to the fluorone for a 20:1 weight ratio.
Samples were also prepared from the same resin formulation containing 0.1% DIBF in addition to the coinitiator listed in the following Table 9 with the exposure condition and pencil hardness results shown.
Using the resin formulation of Example 36, photosensitive compositions were prepared using TIHF, DIDMA and OPPI at a concentration of 0.21% and in the molar ratios shown in Table 10 which follows. Exposure was conducted with the dental lamp at a distance of 1 inch from the sample to provide an intensity of about 0.26 W/cm^2. Molar ratios are fluorone:onium salt:amine.

The nature of a further data set: fluorescence (λf, φf). It is filed as physicochemical. The text has this: In Table 2 below, the properties of the foregoing initiators are shown:
Entries in the table are in the solvents according to the following order.

A further data set can be described thus: pKa. Format: physicochemical. The source says: (§2) In Table 2 below, the properties of the foregoing initiators are shown: […]
Data set [3] is described as follows: oxidation and reduction potentials (Eox, Ered). It is filed as physicochemical. The following applies: in V (unit assumed).
Description: as §2

SMILES strings stand for the structures. Read-outs that look alike come from different tables or passages of the source.

Turning to `CCCCCCCC(=O)c1cc2cc3cc(I)c(=O)c(I)c-3oc2c(I)c1O` [Compound 17, 3-hydroxy-4,5,7-triiodo-2octanoyl-6-fluorone], in data set [1] (EtOH, Table 1), the “λmax in EtOH (first value)” value was 538 and the “ε (first value)” value is reported as 84,800. In “solubility”, the “solubility in CDCl3” value was “almost no solubility”. Also, the “solubility in DMSO” value in the data set “solubility” (DMSO) is “poor solubility”.

In the case of `CCCCCCCC(=O)c1cc2c(C#N)c3cc(I)c(=O)c(I)c-3oc2c(I)c1O` [Compound 18, 9-cyano-3-hydroxy-4,5,7-triiodo-2-octanoyl-6-fluorone], in data set [1] (EtOH, Table 1), the “λmax in EtOH (first value)” value is 636 and the “ε (first value)” value was 17,000. The absorption wavelength in data set [1] was found to be 638 nm. Also, in “solubility”, the “solubility in CDCl3” value is “very good solubility”.

For the compound `CCOc1ccc2cc3cc(I)c(=O)c(I)c-3oc2c1` [DIEF, 5,7-diiodo-3-ethoxy-6-fluorone], in data set [1] (EtOH, Table 1), the “λmax in EtOH (first value)” value came out at 470. For the same compound, the “ε (first value)” value in data set [1] (EtOH, Table 1) is given as 21,100. The depth of cure result in the data set “depth of cure” (0.01 and 0.03 weight %, 2 passes, 300 watt per inch medium pressure mercury arc lamp, 50 feet/minute, 2% DIDMA) was “greater than 3 mm”; in the data set “depth of cure” (0.1 weight %, 300 watt per inch medium pressure mercury arc lamp, 50 feet/minute, 2% DIDMA), “greater than 1.5 mm”; in “depth of cure” (10 seconds, 75 watt tungsten halogen, about 260 mw/cm^2, 0.05 weight % dye, 2 weight % DIDMA, 60% urethane diacrylate, 30% DPHPA, 10% BDDA) it was “greater than 1 cm”; in “depth of cure” (10 seconds, 75 watt tungsten halogen, 0.01, 0.05 or 0.1 weight %, 2% DIDMA, TMPTA/DPHPA/Epoxy acrylate) it was “greater than 1 cm”; in the data set “depth of cure” (30 seconds, 350 watt tungsten halogen, about 500 mw/cm^2, dye 0.01, 0.05 and 0.1 weight, NPG 20 to 1), 3 cm. In addition, the “cure time for the same depth (3 cm)” value in the data set “depth of cure” (about 2 watts/cm^2, NPG 20 to 1) stood at 5 s. Further, in data set [2] (0.05 wt %), the “C=C% Conversion” value turned out to be 40%. Further, the Pencil hardness in “pencil hardness” (0.05 wt. %, 1% DIDMA, Dental Lamp, Air, 60 sec) was 3B; in “pencil hardness” (0.05 wt. %, 1% DIDMA, Dental Lamp, No Air, 30 sec), 3B; in the data set “pencil hardness” (0.05 wt. %, 1% DIDMA, Dental Lamp, No Air, 60 sec), 2B; in the data set “pencil hardness” (0.05 wt. %, 1% DIDMA, Fusion (Q bulb), Air, 10 ft/min), 2B; in the data set “pencil hardness” (0.05 wt. %, 1% DIDMA, Fusion (Q bulb), Air, 20 ft/min), over 4B; in “pencil hardness” (0.05 wt. %, 1% NPG, Dental Lamp, Air, 60 sec) it was 2B. Moreover, the Pencil hardness in “pencil hardness” (0.05 wt. %, 1% NPG, Dental Lamp, No Air, 10 sec) is reported as under 4B; in the data set “pencil hardness” (0.05 wt. %, 1% NPG, Dental Lamp, No Air, 30 sec), 2H; in the data set “pencil hardness” (0.05 wt. %, 1% NPG, Dental Lamp, No Air, 60 sec) it was 3H; in “pencil hardness” (0.05 wt. %, 1% NPG, Fusion (Q bulb), Air, 10 ft/min), over 6H; in “pencil hardness” (0.05 wt. %, 1% NPG, Fusion (Q bulb), Air, 20 ft/min) it was 3H; in the data set “pencil hardness” (0.05 wt. %, 1% NPG, Overhead Proj., Air, 60 sec), 3B. In “pencil hardness” (0.05 wt. %, 1% NPG, Overhead Proj., No Air, 60 sec), this compound yielded a Pencil hardness of 3H.

As to `CCCCCCCCOc1ccc2cc3cc(I)c(=O)c(I)c-3oc2c1` [DIOF, 5,7-diiodo-3-octoxy-6-fluorone], in data set [1] (EtOH, Table 1), the “λmax in EtOH (first value)” value worked out at 470 and the “ε (first value)” value is listed as 31,600. The “C=C% Conversion” value in data set [2] (0.05 wt %) is 40%. Also, the “C=C% Conversion” value in data set [2] (0.15 wt %) worked out at 40%.

Take `O=c1ccc2cc3ccc(O)cc3oc-2c1` [HF, 3-Hydroxy-6-fluorone]: in data set [1] (EtOH, Table 1), the “λmax in EtOH (first value)” value is on record as 504 and the “ε (first value)” value is listed as 24700. Further, in data set [1] (methanol), the λmax is listed as 500 nm. Further, in the data set “fluorescence (λf, φf)” (10^-7 M (footnote c)), the φf entry is given as “.95”. The pKa in “pKa” amounted to 5.97. Also, in data set [3], the Eox stood at 1.34 and the Ered entry is “-.99”.

Turning to `O=c1c(Br)cc2cc3cc(Br)c(O)c(Br)c3oc-2c1Br` [TBHF, 3-hydroxy-2,4,5,7-tetrabromo-6-fluorone], in data set [1] (EtOH, Table 1), the “λmax in EtOH (first value)” value amounted to 530 and the “ε (first value)” value was 39300. Moreover, in data set [1] (methanol), the λmax was 526 nm. Also, the φf result in “fluorescence (λf, φf)” was “.52”. The same compound showed a λf in the data set “fluorescence (λf, φf)” (MeOH) of 539 nm. In addition, the pKa in “pKa” is listed as 3.28. Also, in data set [3], the Eox turned out to be 1.099 and the Ered entry is reported as “-.95”.

For the compound `N#Cc1c2cc(I)c(=O)c(I)c-2oc2c(I)c(O)c(I)cc12` [TIHCF, 9-cyano-3-hydroxy-2,4,5,7-tetraiodo-6-fluorone], in data set [1] (EtOH, Table 1), the “λmax in EtOH” value amounted to 586, the “λmax in EtOH (first value)” value turned out to be 638 and the “ε (first value)” value is 80000. Moreover, in data set [1] (EtOH, at second λmax, Table 1), the ε came out at 35000 M⁻¹ cm⁻¹. In data set [1], this compound came in with an absorption wavelength of 636 nm. This compound showed a λmax in data set [1] (ethanol) of 638 nm. Further, the “depth of cure results” value in the data set “depth of cure” is reported as “have also been observed”.

Take `O=c1c(I)cc2cc3cc(I)c(O)c(I)c3oc-2c1I` [TIHF, 3-hydroxy-2,4,5,7-tetraiodo-6-fluorone]: in data set [1] (EtOH, Table 1), the “λmax in EtOH (first value)” value was 536. In addition, the “ε (first value)” value in data set [1] (EtOH, Table 1) was found to be 91200. Also, in data set [1] (ethanol), the λmax was 536 nm. In the data set “fluorescence (λf, φf)”, the φf entry is reported as “.13”. In the data set “pKa”, this compound came in with a pKa of 4.08. Also, the Eox in data set [3] is listed as 1.04. Besides, the Ered entry in data set [3] is listed as “-.95”. Also, the “depth of cure results” value in “depth of cure” is reported as “have also been observed”. The “Pencil hardness” value in the data set “pencil hardness” (0.21%, TIHF:OPPI:DIDMA (1:1:0), dental lamp 60 sec.) is 4H; in “pencil hardness” (0.21%, TIHF:OPPI:DIDMA (1:1:1), dental lamp 60 sec.) it was 5-6H; in “pencil hardness” (0.21%, TIHF:OPPI:DIDMA (1:1:5), dental lamp 60 sec.) it was over 6H; in “pencil hardness” (0.21%, TIHF:OPPI:DIDMA (1:1:10), dental lamp 60 sec.), over 6H; in the data set “pencil hardness” (0.21%, TIHF:OPPI:DIDMA (1:1:33), dental lamp 60 sec.), over 6H; in “pencil hardness” (0.21%, TIHF:OPPI:DIDMA (1:2:0), dental lamp 60 sec.), 5-6H. The “Pencil hardness” value in “pencil hardness” (0.21%, TIHF:OPPI:DIDMA (1:2:5), dental lamp 60 sec.) was over 6H; in the data set “pencil hardness” (0.21%, TIHF:OPPI:DIDMA (1:2:10), dental lamp 60 sec.), over 6H; in the data set “pencil hardness” (0.21%, TIHF:OPPI:DIDMA (1:2:33), dental lamp 60 sec.), over 6H; in “pencil hardness” (0.21%, TIHF:OPPI:DIDMA (1:5:)), dental lamp 60 sec.) it was 5-6H; in the data set “pencil hardness” (0.21%, TIHF:OPPI:DIDMA (1:10:0), dental lamp 60 sec.), 5-6H.

By pKa is commonly meant the negative logarithm of the acid dissociation constant.

The record behind these values is patent US5623080A, “Fluorone and pyronin Y derivatives” (Spectra Group Limited, Inc., priority 1995, dated 1997).
